SMILES strings stand for the structures.

Consider `Cn1cc(C(=O)Nc2ccsc2C2CC2C2CC2)c(C(F)F)n1` (stereo not shown) [Compound 4.34, 3-difluoromethyl-1-methyl-1H-pyrazole-4-carboxylic acid (2-bicyclo-propyl-2-yl-thiophen-3-yl)amide], for which the melting point was 76 to 79 °C.

The values above are taken from US7312179B2, “Cyclopropyl-thienyl-carboxamide as fungicides” (Syngenta Crop Protection, Inc., priority 2002, dated 2007).
